Results from the supplement of paper PMC11451515.

Legend:
Details in all cases: 48 h
NOMO1 [1] = assay: cell viability relative to DMSO control; higher = less cytotoxic
How it was run: (§1)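 Library compounds in DMSO were pin-dosed into 1536-well plates (5 μl) holding NOMO1 or SEM (500 cells/well) or P12-Ichikawa (1000 cells/well) leukemia cells, across an 11-point threefold series of 47 μM to 0.79 nM. Each cell line had been adapted for at least four passages in each medium. CellTiter-Glo One luminescence was read after 48 h at 37°C. Viability is the per-plate percentage relative to DMSO wells, with cell-free wells as background.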

P12-Ichikawa [2] = assay: as above
How it was run: as §1

SEM cells [3] = assay: as above
How it was run: as §1

NOMO1 [4] = assay: AUC of viability dose-response curve (% viability x log10 dose units); higher = less sensitive
How it was run: (§2)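 Viability of medium-adapted leukemia cells was measured by CellTiter-Glo One luminescence after 48 h at 37°C with library compounds in DMSO. Doses were 11 threefold steps from 47 μM to 0.79 nM, in 1536-well plates at 500 or 1000 cells/well. Signals were normalised per plate to DMSO and cell-free wells and fitted with a four-parameter log-logistic model on log10 dose. Area under the curve was integrated by trapezoidal rule, with curves exceeding full viability scaled and failed quality-control curves removed.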

P12-Ichikawa [5] = assay: as above
How it was run: as §2

SEM cells [6] = assay: as above
How it was run: as §2

Cc1[nH]c2ccccc2c1CCNCc1ccc(/C=C/C(=O)NO)cc1
cell viability [%]
Details	NOMO1 [1]	P12-Ichikawa [2]	SEM cells [3]
HPLM + 10% dialyzed FBS, 0.000781 µM	102	109	99.1
HPLM + 10% dialyzed FBS, 0.00234 µM	108	106	114
HPLM + 10% dialyzed FBS, 0.00702 µM	126	111	112
HPLM + 10% dialyzed FBS, 0.0211 µM	99.9	120	114
HPLM + 10% dialyzed FBS, 0.0632 µM	137	121	116
HPLM + 10% dialyzed FBS, 0.19 µM	103	103	75.8
HPLM + 10% dialyzed FBS, 0.569 µM	61.8	63.1	12.3
HPLM + 10% dialyzed FBS, 1.71 µM	14.2	7.05	7.29
HPLM + 10% dialyzed FBS, 5.12 µM	9	6.95	8.44
HPLM + 10% dialyzed FBS, 15.4 µM	8.41	7.08	8.29
HPLM + 10% dialyzed FBS, 46.1 µM	8.11	7.23	8.77
RPMI 5 mM glucose + 10% FBS, 0.000781 µM	111	106	85.6
RPMI 5 mM glucose + 10% FBS, 0.00234 µM	118	120	88.8
RPMI 5 mM glucose + 10% FBS, 0.00702 µM	108	108	101
RPMI 5 mM glucose + 10% FBS, 0.0211 µM	106	107	94.3
RPMI 5 mM glucose + 10% FBS, 0.0632 µM	110	128	92.5
RPMI 5 mM glucose + 10% FBS, 0.19 µM	102	109	74.1
RPMI 5 mM glucose + 10% FBS, 0.569 µM	82.9	48.2	12.6
RPMI 5 mM glucose + 10% FBS, 1.71 µM	10.9	6.65	5.77
RPMI 5 mM glucose + 10% FBS, 5.12 µM	7.29	6.49	7.04
RPMI 5 mM glucose + 10% FBS, 15.4 µM	7.8	8.3	7.05
RPMI 5 mM glucose + 10% FBS, 46.1 µM	7.5	6.44	7.05
RPMI 5 mM glucose + 10% dialyzed FBS, 0.000781 µM	106	114	89.9
RPMI 5 mM glucose + 10% dialyzed FBS, 0.00234 µM	122	109	106
RPMI 5 mM glucose + 10% dialyzed FBS, 0.00702 µM	116	117	108
RPMI 5 mM glucose + 10% dialyzed FBS, 0.0211 µM	99.5	111	115
RPMI 5 mM glucose + 10% dialyzed FBS, 0.0632 µM	122	122	112
RPMI 5 mM glucose + 10% dialyzed FBS, 0.19 µM	110	113	81.6
RPMI 5 mM glucose + 10% dialyzed FBS, 0.569 µM	84.4	74.4	19.5
RPMI 5 mM glucose + 10% dialyzed FBS, 1.71 µM	13	6.85	7.59
RPMI 5 mM glucose + 10% dialyzed FBS, 5.12 µM	8.52	6.73	8.77
RPMI 5 mM glucose + 10% dialyzed FBS, 15.4 µM	9.32	6.95	8.45
RPMI 5 mM glucose + 10% dialyzed FBS, 46.1 µM	7.81	7.21	9.84

AUC of viability dose-response curve
Details	NOMO1 [4]	P12-Ichikawa [5]	SEM cells [6]
HPLM + 10% dialyzed FBS	300	298	265
RPMI 5 mM glucose + 10% FBS	311	292	251
RPMI 5 mM glucose + 10% dialyzed FBS	312	304	273

FC1=CC=C(SC/2=N/N3\C=N/C(=O)/C(=C3/C=C2)C4=C(Cl)C=CC=C4Cl)C(=C1)F
cell viability [%]
Details	NOMO1 [1]	P12-Ichikawa [2]	SEM cells [3]
HPLM + 10% dialyzed FBS, 0.000781 µM	99	100	79
HPLM + 10% dialyzed FBS, 0.00234 µM	108	104	85.9
HPLM + 10% dialyzed FBS, 0.00702 µM	108	114	89.7
HPLM + 10% dialyzed FBS, 0.0211 µM	114	108	91.1
HPLM + 10% dialyzed FBS, 0.0632 µM	112	114	92
HPLM + 10% dialyzed FBS, 0.19 µM	118	102	88.1
HPLM + 10% dialyzed FBS, 0.569 µM	119	117	98.5
HPLM + 10% dialyzed FBS, 1.71 µM	107	114	89.7
HPLM + 10% dialyzed FBS, 5.12 µM	101	114	88.1
HPLM + 10% dialyzed FBS, 15.4 µM	99.2	94.9	76.7
HPLM + 10% dialyzed FBS, 46.1 µM	50.2	33.6	44.9
RPMI 5 mM glucose + 10% FBS, 0.000781 µM	98.8	105	97.5
RPMI 5 mM glucose + 10% FBS, 0.00234 µM	93.2	101	104
RPMI 5 mM glucose + 10% FBS, 0.00702 µM	104	95.7	106
RPMI 5 mM glucose + 10% FBS, 0.0211 µM	118	108	101
RPMI 5 mM glucose + 10% FBS, 0.0632 µM	104	106	108
RPMI 5 mM glucose + 10% FBS, 0.19 µM	115	104	101
RPMI 5 mM glucose + 10% FBS, 0.569 µM	98.3	106	102
RPMI 5 mM glucose + 10% FBS, 1.71 µM	105	98.6	112
RPMI 5 mM glucose + 10% FBS, 5.12 µM	95.3	93.4	93.8
RPMI 5 mM glucose + 10% FBS, 15.4 µM	104	66.2	62.9
RPMI 5 mM glucose + 10% FBS, 46.1 µM	43.7	24.8	20.1
RPMI 5 mM glucose + 10% dialyzed FBS, 0.000781 µM	98.7	96.4	91.7
RPMI 5 mM glucose + 10% dialyzed FBS, 0.00234 µM	114	104	78.6
RPMI 5 mM glucose + 10% dialyzed FBS, 0.00702 µM	105	110	95.7
RPMI 5 mM glucose + 10% dialyzed FBS, 0.0211 µM	103	104	93.4
RPMI 5 mM glucose + 10% dialyzed FBS, 0.0632 µM	101	107	103
RPMI 5 mM glucose + 10% dialyzed FBS, 0.19 µM	106	107	87.5
RPMI 5 mM glucose + 10% dialyzed FBS, 0.569 µM	108	105	83.3
RPMI 5 mM glucose + 10% dialyzed FBS, 1.71 µM	110	120	79.3
RPMI 5 mM glucose + 10% dialyzed FBS, 5.12 µM	108	105	77.2
RPMI 5 mM glucose + 10% dialyzed FBS, 15.4 µM	99	86	73.4
RPMI 5 mM glucose + 10% dialyzed FBS, 46.1 µM	72.5	38.1	33.6

AUC of viability dose-response curve
Details	NOMO1 [4]	P12-Ichikawa [5]	SEM cells [6]
HPLM + 10% dialyzed FBS	457	454	409
RPMI 5 mM glucose + 10% FBS	463	436	435
RPMI 5 mM glucose + 10% dialyzed FBS	466	452	398
